Data taken from US11759462B2, “Spirocyclic compounds as tryptophan hydroxylase inhibitors” (priority 2013, dated 2023).

Each compound was assayed against T1, Recombinant human TPH1 (MBP tagged) (Homo sapiens, UniProt P17752) (assay: TPH1 in vitro inhibition assay (kinetic fluorescence)). Settings: read-out: TPH1 Range (TPH1 inhibition IC50).
T1 construct: cloning full length human TPH1 cDNA in to a bacterial pMAL-c5E expression vector; made in house; host or cells: E. coli BL21 (DE3)
T1 sequence (P17752 1-444): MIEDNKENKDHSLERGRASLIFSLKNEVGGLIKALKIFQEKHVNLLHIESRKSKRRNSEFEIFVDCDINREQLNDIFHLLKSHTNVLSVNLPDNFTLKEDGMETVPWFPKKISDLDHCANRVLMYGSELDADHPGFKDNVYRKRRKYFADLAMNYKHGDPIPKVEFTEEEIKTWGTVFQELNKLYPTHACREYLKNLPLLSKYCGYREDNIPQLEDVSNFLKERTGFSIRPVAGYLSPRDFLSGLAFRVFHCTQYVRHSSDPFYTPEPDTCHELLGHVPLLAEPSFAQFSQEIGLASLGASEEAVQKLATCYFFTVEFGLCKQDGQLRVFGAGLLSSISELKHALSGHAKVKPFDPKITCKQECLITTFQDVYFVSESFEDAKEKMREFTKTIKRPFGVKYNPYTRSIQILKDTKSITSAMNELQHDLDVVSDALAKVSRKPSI
Assay type: biochemical
Method in brief: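 Final mix: 15 nM MBP-TPH1, 30 μM Trp, 36 μM 6-methyltetrahydropterin, 25 μM ferrous ammonium sulfate, 50 mM MES pH 7.1, 1% DMSO, room temperature.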

IC50, 50 to 300 nM:
Cc1ccn(-c2ccc(C(=O)O)cc2[C@@H](Oc2cc(N3CCC4(CC3)CN[C@H](C(=O)O)C4)nc(N)n2)C(F)(F)F)n1 [Example 24, (S)-8-(2-Amino-6-((R)-1-(5-carboxy-2-(3-methyl-H-pyrazol-1-yl)phenyl)-2,2,2-trifluoroethoxy)pyrimidin-4-yl)-2,8-diazaspiro[4.5]decane-3-carboxylic acid]

IC50, < 50 nM:
Cc1ccn(-c2ccc(-c3ccc(C)c(C)c3)cc2[C@@H](Oc2cc(N3CCC4(CC3)CN[C@H](C(=O)O)C4)nc(N)n2)C(F)(F)F)n1 [Example 19e, (S)-8-(2-amino-6-((R)-1-(3′,4′-dimethyl-4-(3-methyl-1H-pyrazol-1-yl)-[1,1′-biphenyl]-3-yl)-2,2,2-trifluoroethoxy)pyrimidin-4-yl)-2,8-diazaspiro[4.5] decane-3-carboxylic acid]
Cc1ccn(-c2ccc(-c3cccc(C(=O)O)c3)cc2[C@@H](Oc2cc(N3CCC4(CC3)CN[C@H](C(=O)O)C4)nc(N)n2)C(F)(F)F)n1 [Example 19f, (S)-8-(2-amino-6-((R)-1-(3′-carboxy-4-(3-methyl-1H-pyrazol-1-yl)-[1,1′-biphenyl]-3-yl)-2,2,2-trifluoroethoxy)pyrimidin-4-yl)-2,8-diazaspiro[4.5] decane-3-carboxylic acid]
Cc1ccn(-c2ccc(-c3ccc(C(=O)O)cc3)cc2[C@@H](Oc2cc(N3CCC4(CC3)CN[C@H](C(=O)O)C4)nc(N)n2)C(F)(F)F)n1 [Example 19g, (S)-8-(2-amino-6-((R)-1-(4′-carboxy-4-(3-methyl-1H-pyrazol-1-yl)-[1,1′-biphenyl]-3-yl)-2,2,2-trifluoroethoxy)pyrimidin-4-yl)-2,8-diazaspiro[4.5] decane-3-carboxylic acid]
Cc1ccn(-c2ccc(-c3cccc(/C=C/C(=O)O)c3)cc2[C@@H](Oc2cc(N3CCC4(CC3)CN[C@H](C(=O)O)C4)nc(N)n2)C(F)(F)F)n1 [Example 19h, (S)-8-(2-amino-6-((R)-1-(3′-((E)-2-carboxyvinyl)-4-(3-methyl-1H-pyrazol-1-yl)-[1,1′-biphenyl]-3-yl)-2,2,2-trifluoroethoxy)pyrimidin-4-yl)-2,8-diazaspiro[4.5] decane-3-carboxylic acid]
Cc1ccn(-c2ccc(-c3ccc(/C=C/C(=O)O)cc3)cc2[C@@H](Oc2cc(N3CCC4(CC3)CN[C@H](C(=O)O)C4)nc(N)n2)C(F)(F)F)n1 [Example 19i, (S)-8-(2-amino-6-((R)-1-(4′-((E)-2-carboxyvinyl)-4-(3-methyl-1H-pyrazol-1-yl)-[1,1′-biphenyl]-3-yl)-2,2,2-trifluoroethoxy)pyrimidin-4-yl)-2,8-diazaspiro[4.5] decane-3-carboxylic acid]
Cc1ccn(-c2ccc(-c3cccc(CCC(=O)O)c3)cc2[C@@H](Oc2cc(N3CCC4(CC3)CN[C@H](C(=O)O)C4)nc(N)n2)C(F)(F)F)n1 [Example 19j, (S)-8-(2-amino-6-((R)-1-(3′-(2-carboxyethyl)-4-(3-methyl-1H-pyrazol-1-yl)-[1,1′-biphenyl]-3-yl)-2,2,2-trifluoroethoxy)pyrimidin-4-yl)-2,8-diazaspiro[4.5] decane-3-carboxylic acid]
Cc1ccn(-c2ccc(-c3ccc(CCC(=O)O)cc3)cc2[C@@H](Oc2cc(N3CCC4(CC3)CN[C@H](C(=O)O)C4)nc(N)n2)C(F)(F)F)n1 [Example 19k, (S)-8-(2-amino-6-((R)-1-(4′-(2-carboxyethyl)-4-(3-methyl-1H-pyrazol-1-yl)-[1,1′-biphenyl]-3-yl)-2,2,2-trifluoroethoxy)pyrimidin-4-yl)-2,8-diazaspiro[4.5] decane-3-carboxylic acid]
Cc1ccn(-c2ccc(-c3ccc(CO)c(C)c3)cc2[C@@H](Oc2cc(N3CCC4(CC3)CN[C@H](C(=O)O)C4)nc(N)n2)C(F)(F)F)n1 [Example 19l, (S)-8-(2-amino-6-((R)-2,2,2-trifluoro-1-(4′-(hydroxymethyl)-3′-methyl-4-(3-methyl-1H-pyrazol-1-yl)-[1,1′-biphenyl]-3-yl)ethoxy)pyrimidin-4-yl)-2,8-diazaspiro[4.5]decane-3-carboxylic acid]
Cc1ccn(-c2ccc(-c3ccc(C)c(CO)c3)cc2[C@@H](Oc2cc(N3CCC4(CC3)CN[C@H](C(=O)O)C4)nc(N)n2)C(F)(F)F)n1 [Example 19m, (S)-8-(2-amino-6-((R)-2,2,2-trifluoro-1-(3′-(hydroxymethyl)-4′-methyl-4-(3-methyl-1H-pyrazol-1-yl)-[1,1′-biphenyl]-3-yl)ethoxy)pyrimidin-4-yl)-2,8-diazaspiro[4.5]decane-3-carboxylic acid]
Cc1ccn(-c2ccc(-c3ccccc3)cc2[C@@H](Oc2cc(N3CCC4(CC3)CN[C@H](C(=O)O)C4)nc(N)n2)C(F)(F)F)n1 [Example 19n, (S)-8-(2-amino-6-((R)-2,2,2-trifluoro-1-(4-(3-methyl-1H-pyrazol-1-yl)-[1,1′-biphenyl]-3-yl)ethoxy)pyrimidin-4-yl)-2,8-diazaspiro[4.5]decane-3-carboxylic acid]
Cc1ccn(-c2ccc(-c3ccc(F)c(F)c3)cc2[C@@H](Oc2cc(N3CCC4(CC3)CN[C@H](C(=O)O)C4)nc(N)n2)C(F)(F)F)n1 [Example 19o, (S)-8-(2-amino-6-((R)-1-(3′,4′-difluoro-4-(3-methyl-1H-pyrazol-1-yl)-[1,1′-biphenyl]-3-yl)-2,2,2-trifluoroethoxy)pyrimidin-4-yl)-2,8-diazaspiro[4.5] decane-3-carboxylic acid]
Cc1ccn(-c2ccc(-c3ccc(Cl)c(Cl)c3)cc2[C@@H](Oc2cc(N3CCC4(CC3)CN[C@H](C(=O)O)C4)nc(N)n2)C(F)(F)F)n1 [Example 19p, (S)-8-(2-amino-6-((R)-1-(3′,4′-dichloro-4-(3-methyl-1H-pyrazol-1-yl)-[1,1′-biphenyl]-3-yl)-2,2,2-trifluoroethoxy)pyrimidin-4-yl)-2,8-diazaspiro[4.5] decane-3-carboxylic acid]
Cc1ccn(-c2ccc(-c3ccc(Cl)cc3)cc2[C@@H](Oc2cc(N3CCC4(CC3)CN[C@H](C(=O)O)C4)nc(N)n2)C(F)(F)F)n1 [Example 19q, (S)-8-(2-amino-6-((R)-1-(4′-chloro-4-(3-methyl-1H-pyrazol-1-yl)-[1,1′-biphenyl]-3-yl)-2,2,2-trifluoroethoxy)pyrimidin-4-yl)-2,8-diazaspiro[4.5] decane-3-carboxylic acid]
Cc1ccn(-c2ccc(-c3ccc(CO)cc3)cc2[C@@H](Oc2cc(N3CCC4(CC3)CN[C@H](C(=O)O)C4)nc(N)n2)C(F)(F)F)n1 [Example 19r, (S)-8-(2-amino-6-((R)-2,2,2-trifluoro-1-(4′-(hydroxymethyl)-4-(3-methyl-1H-pyrazol-1-yl)-[1,1′-biphenyl]-3-yl)ethoxy)pyrimidin-4-yl)-2,8-diazaspiro[4.5]decane-3-carboxylic acid]
CCOC(=O)c1ccccc1-c1ccc(-n2ccc(C)n2)c([C@@H](Oc2cc(N3CCC4(CC3)CN[C@H](C(=O)O)C4)nc(N)n2)C(F)(F)F)c1 [Example 20, (S)-8-(2-amino-6-((R)-1-(2′-(ethoxycarbonyl)-4-(3-methyl-1H-pyrazol-1-yl)-[1,1′-biphenyl]-3-yl)-2,2,2-trifluoroethoxy)pyrimidin-4-yl)-2,8-diazaspiro[4.5]decane-3-carboxylic acid]
CCOC(=O)c1ccc(-c2ccc(-n3ccc(C)n3)c([C@@H](Oc3cc(N4CCC5(CC4)CN[C@H](C(=O)O)C5)nc(N)n3)C(F)(F)F)c2)cc1 [Example 21, (S)-8-(2-amino-6-((R)-1-(4′-(ethoxycarbonyl)-4-(3-methyl-1H-pyrazol-1-yl)-[1,1′-biphenyl]-3-yl)-2,2,2-trifluoroethoxy)pyrimidin-4-yl)-2,8-diazaspiro[4.5]decane-3-carboxylic acid]
CCc1ccc(-n2ccc(C)n2)c([C@@H](Oc2cc(N3CCC4(CC3)CN[C@H](C(=O)O)C4)nc(N)n2)C(F)(F)F)c1 [Example 22a, (S)-8-(2-amino-6-((R)-1-(5-ethyl-2-(3-methyl-H-pyrazol-1-yl)phenyl)-2,2,2-trifluoroethoxy)pyrimidin-4-yl)-2,8-diazaspiro[4.5]decane-3-carboxylic acid]
CCCc1ccc(-n2ccc(C)n2)c([C@@H](Oc2cc(N3CCC4(CC3)CN[C@H](C(=O)O)C4)nc(N)n2)C(F)(F)F)c1 [Example 22b]
CCOC(=O)c1ccc(-n2ccc(C)n2)c([C@@H](Oc2cc(N3CCC4(CC3)CN[C@H](C(=O)O)C4)nc(N)n2)C(F)(F)F)c1 [Example 23, (S)-8-(2-Amino-6-((R)-1-(5-(ethoxycarbonyl)-2-(3-methyl-1H-pyrazol-1-yl)phenyl)-2,2,2-trifluoroethoxy)pyrimidin-4-yl)-2,8-diazaspiro[4.5]decane-3-carboxylic acid]
Cc1ccn(-c2cc(CO)ccc2[C@@H](Oc2cc(N3CCC4(CC3)CN[C@H](C(=O)O)C4)nc(N)n2)C(F)(F)F)n1 [Example 25, (S)-8-(2-Amino-6-((R)-2,2,2-trifluoro-1-(4-(hydroxymethyl)-2-(3-methyl-H-pyrazol-1-yl)phenyl)ethoxy)pyrimidin-4-yl)-2,8-diazaspiro[4.5]decane-3-carboxylic acid]
